Experiments:
[1] = system: Arabidopsis thaliana Col-0 ecotype seeds; assay: Seed germination, Col-0; assay type: in vivo; conditions: 1 μM
Description: (§1) Two lines of plant were sown simultaneously on a single medium of 6 cm diameter, with 15 seeds sown for each line and 4 replicates for each compound. […]

[2] = Maximum tolerated dose, single oral gavage; assay type: in vivo; conditions: both sexes, rat, in vivo, 5000 mg/kg, SD rats
Description: (§2) The test substance used in the experiment was AMX compound 1127.
(§3) In the maximum tolerated dose of tested substance in single oral gavage experiment in SD rat, 8 SD rats were randomly divided into two groups, with […]. After a single oral gavage administration, rats were observed continuously for 14 days and dissected on the 15th day. The following indicators were evaluated: clinical observation, body weight and pathology examination (macroscopic morphology).

SD rat = assay: Maximum tolerated dose, single oral gavage; assay type: in vivo; conditions: 5000 mg/kg, male and female rats
Description: as §2, §3

[3] = system: Salmonella typhimurium TA98 and TA100; assay: Bacterial reverse mutation experiment; assay type: cell-based; conditions: all doses; -S9
Description: as §2
Two strains of Salmonella typhimurium, TA98 and TA100, were used in the bacterial reverse mutation experiment. The experiment was carried out by using standard plate incorporation method under a condition of non-metabolic activation system (−S9). There were totally 7 doses of […] as well as a negative control and a positive control.

PYL7 + HAB1 = target: T1, PYL7 + HAB1 (Arabidopsis thaliana, UniProt Q1ECF1); assay: AlphaScreen experiment, PYL7 + HAB1; assay type: binding; conditions: number in brackets; read-out: Half maximum effect concentration EC50 (PYL7 + HAB1)
T1 construct: made in house; host or cells: E. coli BL21 (DE3)
T1 sequence (Q1ECF1 1-211): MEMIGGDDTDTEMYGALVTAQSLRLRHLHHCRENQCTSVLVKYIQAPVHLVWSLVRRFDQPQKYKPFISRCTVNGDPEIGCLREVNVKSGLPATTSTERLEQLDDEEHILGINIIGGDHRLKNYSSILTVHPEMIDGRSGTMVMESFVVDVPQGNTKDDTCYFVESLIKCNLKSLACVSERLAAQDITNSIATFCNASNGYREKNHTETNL
T1 sequence (Q9CAJ0 172-511 partner limits assumed): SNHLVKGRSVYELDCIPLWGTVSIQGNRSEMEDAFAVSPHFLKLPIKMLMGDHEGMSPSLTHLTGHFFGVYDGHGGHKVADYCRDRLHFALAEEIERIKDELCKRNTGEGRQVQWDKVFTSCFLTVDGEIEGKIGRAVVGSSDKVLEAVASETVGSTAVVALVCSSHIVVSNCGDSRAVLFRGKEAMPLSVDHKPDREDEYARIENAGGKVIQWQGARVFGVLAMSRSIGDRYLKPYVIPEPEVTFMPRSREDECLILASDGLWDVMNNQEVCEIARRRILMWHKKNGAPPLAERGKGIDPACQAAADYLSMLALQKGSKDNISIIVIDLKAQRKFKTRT
Description: (§4) After incubating for 1.5 hours at room temperature in the dark, it was placed into an Envision Plate Reader (available from Perkin Elmer) under the programmed AlphaScreen procedure for readings.

[4] = system: pyr1;pyl1;pyl4 triple mutant seeds; assay: Seed germination, PYR/PYL triple mutant; assay type: in vivo, Arabidopsis thaliana; conditions: 1 μM; six days after seeding
Description: as §1

[5] = system: Yunnan Lily variety Siberia; assay: Flower preservative experiment; assay type: in vivo; conditions: aqueous suspension 10 ppm (22.5 μM); after 20 days
Description: The commercially available Yunnan Lily varieties “Siberia” biennial buds were used for test, wherein each branch had 5 buds and 10 leaves, and there was 1 branch per bottle. The branch having buds was inserted into a water suspension preparation containing 10 ppm (22.5 μM) of AMX compound 1127 or into tap water. The flower status was recorded before and after 20 days of treatment.

[6] = system: Arabidopsis Col-0 ecotype; assay: Soil drought experiment, Arabidopsis; assay type: in vivo, Arabidopsis thaliana
Description: Seeds of Arabidopsis Col-0 ecotype were sterilized with NaClO and then sown on ½ MS solid medium at 4° C. for 3 days of vernalization. After 6 days of growing, the well-grown seedlings having uniform size were selected and transferred into 8×7×6 cm^3 pots. Each pot was filled with the same weight of soil and the same number of plants (six plants) was planted to reduce experimental error. All the pots were subjected to a short-day culture at 22° C. After two weeks, watering was stopped for drought treatment. […] The position of the flowerpot was changed every day during the process of drought to reduce the error caused by environmental factors. During the whole drought period, the solution was sprayed twice in total and photos were recorded regularly. The watering was resumed in about three weeks.

PYR1 + HAB1 = target: T2, PYR1 + HAB1 (Arabidopsis thaliana, UniProt O49686); assay: AlphaScreen experiment, PYR1 + HAB1; assay type: binding; conditions: column 2; number in brackets; read-out: Half maximum effect concentration EC50 (PYR1 + HAB1)
T2 sequence (O49686 1-191): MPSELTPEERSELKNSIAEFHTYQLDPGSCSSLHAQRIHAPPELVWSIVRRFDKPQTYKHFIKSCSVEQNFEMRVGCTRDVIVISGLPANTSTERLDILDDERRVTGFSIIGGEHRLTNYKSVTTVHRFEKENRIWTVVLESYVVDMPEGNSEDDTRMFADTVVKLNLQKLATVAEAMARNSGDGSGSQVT
T2 sequence (Q9CAJ0 172-511 partner): T1 sequence (Q9CAJ0 172-511 partner limits assumed)
Description: as §4

[7] = system: Arabidopsis ABA synthesis defective mutant aba2-1; assay type: in vivo, Arabidopsis thaliana; conditions: 5 μM sprayed; after 4 days; vs DMSO
PYL2 + HAB1 = target: T3, PYL2 + HAB1 (Arabidopsis thaliana, UniProt O80992); assay: AlphaScreen experiment, PYL2 + HAB1; assay type: binding; conditions: number in brackets; read-out: Half maximum effect concentration EC50 (PYL2 + HAB1)
T3 construct: made in house; host or cells: E. coli BL21 (DE3)
T3 sequence (O80992 14-188 limits assumed): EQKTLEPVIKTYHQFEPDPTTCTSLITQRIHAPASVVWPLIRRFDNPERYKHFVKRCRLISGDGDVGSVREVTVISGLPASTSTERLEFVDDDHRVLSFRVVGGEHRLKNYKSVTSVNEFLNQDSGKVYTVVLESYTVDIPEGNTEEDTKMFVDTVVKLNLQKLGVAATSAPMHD
T3 sequence (Q9CAJ0 172-511 partner limits assumed): T1 sequence (Q9CAJ0 172-511 partner limits assumed)
Description: as §4

CCCN1C(=O)CCc2cc(NS(=O)(=O)Cc3c(F)c(F)c(C)c(F)c3F)ccc21 [Compound 1127]
inhibition effect on germination of Col-0 ecotype seeds compared with control compound [1]: significantly better inhibition effect | germination of Col-0 ecotype seeds ([1]; six days after seeding): could still inhibit germination of Col-0 ecotype seeds | MTD at 14 days [2]: > 5000 mg/kg | clinical observation, body weight and macroscopic morphological observation of tissues/organs (SD rat): no drug-related changes were observed | bacterial toxicity to TA98 and TA100 strains [3]: no obvious bacterial toxicity | EC50 (PYL7 + HAB1): 10 nM | germination of pyr1;pyl1;pyl4 triple mutant seeds [4]: could not inhibit germination of PYR/PYL triple mutant pyr1;pyl1;pyl4 seeds | flowers remained normal [5]: 60% | leaf withering [5]: no leave withered | leaves remained green [5]: 70% | plant survival ([6]; 5 μM sprayed, 18 days after drought): still survived | plant growth ([6]; 5 μM sprayed, after 20 days of drought): still maintained good growth | drought resistance compared with compound with fewer halogen atoms (0604c) ([6]; same concentration, after 2 weeks of drought, FIG. 8c): stronger drought resistance | EC50 (PYR1 + HAB1): 15 nM | leaf temperature [7]: still higher than that in the control group | EC50 (PYL2 + HAB1): 20 nM
